Source: patent US9447083B2, “N-acylhydrazone derivatives for selective T cell inhibitor and anti-lymphoid malignancy drug” (CHONG KUN DANG PHARMACEUTICAL CORP., priority 2012, dated 2016)

Legend:
[1] = tested on: Experimental Autoimmune Encephalomyelitis (EAE); test: Experimental Autoimmune Encephalomyelitis (EAE) model of multiple sclerosis; format: in vivo, mouse
Protocol: At the first day of induction, myelin oligodendrocyte glycoprotein35-55 (MOG35-55, Peptron) (200 ug), mycobacterium tuberculosis (Difco, Cat No. 231141) (500 μg) and complete Freund's adjuvant (Sigma Aldrich, Cat No. F5506) were mixed with each other and immersed for 5 minutes. 0.1 mL of the immersed peptide was injected subcutaneously into both the flanks of each of C57BL/6 mice (9 week old, female, 18±2 g), followed by that […] pertussis toxin (Sigma Aldrich, Cat No. P2980) (200 ng) was injected by intravenously. At 2 days, the same amount of pertussis toxin was administered intravenously. Whether the immersion leaked from the injected portion of the mice was checked, and whether EAE was induced was also examined by visual observation from 7 days.
Compound 229 and Fingolimod that is currently clinically used for the treatment of multiple sclerosis were completely dissolved in a Cremophor EL-ethanol mixture (1:1, v/v) in an amount corresponding to 7.5% (v/v) of the administration volume, and the compound solution was diluted in PBS. The two groups of the mice were administered orally with 200 μL of the diluted solution of compound 229 at each doses of 25 and 50 mg/kg separately, and the third group of the mice was administered orally with 200 μL of the diluted solution of fingolimode at a dose of 1 mg/kg on a daily basis from 17 days to 37 days (for total 21 times) after starting of the experiment. In a vehicle control group, 200 μL of a Cremophor EL-ethanol-PBS mixture (3.75:3.75:92.5, v/v/v) was administered to each mouse in the same manner as the treated group. The index of EAE was recorded daily based on visual observation using a severity index system (6-point (0 to 5) scale) from 7 days of the experiment. The symptoms of multiple sclerosis were evaluated based on the following criteria:
2: limp tail and hind limb weakness;
4: hind limb paralysis and forelimb weakness; and […]

[2] = tested on: alloantigen-specific T cells; test: Inhibitory effect against alloantigen-specific T cells in vitro (mixed lymphocyte reaction, CFSE / 7-AAD); format: cell-based, mouse; settings: for Apoptosis % (mean ± SD) Primary Response / Apoptosis % (mean ± SD) Secondary Response: 72 hours; for Apoptosis % (mean ± SD) Primary Response: vehicle 30.91 ± 3.80; for Apoptosis % (mean ± SD) Secondary Response: vehicle 39.10 ± 4.10
Protocol: The lymph nodes and spleens were aseptically collected from normal C57BL/6 mice (8-12 week old, female, 20±2 g) and were ground with adding of RPMI medium. Then, the ground tissues were passed through a cell strainer (BD Falcon) to make single cell suspensions. The single cell suspension of the spleen was centrifuged at 1200 rpm for 5 minutes. The supernatant was removed, and then 1 mL of ammonium chloride/potassium bicarbonate (ACK) lysis buffer (0.15 M NH4Cl, 1 mM KHCO3, 0.1 mM Na2EDTA) was added to the cells, which were then vortexed for 1 minute and washed with RPMI medium. […] The incubated cell suspension was added with 10 mL of MACS buffer, centrifuged for 5 minutes, washed, and then re-suspended in 2 mL of MACS buffer. The suspended cells were placed in the autoMACS Pro Separator (Miltenyi Biotec), and T cells bound to CD90.2 microbeads were isolated. The isolated T cells were washed with phosphate buffered saline (PBS), and then re-suspended in PBS at a concentration of 1×10^8 cells/mL. Normal BALB/c mice (10-12 week old, female, 20-23 g) were irradiated with 950 rad of γ radiation using IBL 437C irradiator (CIS bio international), and then 100 μL of the above-prepared T cell suspension of C57BL/6 mice were injected into the tail vein of the BALB/c mice. At 3 days after the cell injection, the mice were sacrificed, and the spleens were obtained. An erythrocyte-free single cell suspension was made from the obtained spleens in the same manner as described above, and donor T cells were separated from the spleen cell suspension using the autoMACS Pro Separator, thereby preparing secondary responder cells. Meanwhile, T cells were isolated from normal C57BL/6 mice in the same manner as described above, thereby preparing primary responder cells. Each of the primary and secondary responder cells were re-suspended in 1 mL of 1% FBS-containing PBS, and treated with 3 μM of carboxyfluorescein diacetate succinimidyl ester (CFSE, Invitrogen), and then allowed to react at room temperature for 4 minutes. To stop the reaction, cold-stored 5% FBS-containing PBS was added to the cell suspension, followed by washing. The washed cells were re-suspended in 10% FBS-containing RPMI medium at a concentration of 2×10^6/mL. The spleens of normal BALB/c mice (8-12 week old, female, 20±2 g) were aseptically collected. The erythrocyte-free spleen cells were prepared in the same manner as described above, and then re-suspended in 1 mL of PBS. 0.5 mg/mL of Mitomycin-C(Sigma) was added to the suspension at a concentration of 0.5 μg/mL, and the cells were incubated at 37° C. for 20 minutes, and then washed three times with an excessive amount of PBS. The washed cells were re-suspended in 10% FBS-containing RPMI medium at a concentration of 4×10^6 cells/mL, thereby preparing stimulator cells. The primary and secondary responder cells were mixed with the stimulator cells at a ratio of 1:1 separately, and 200 μL of each cell mixtures was dispensed into each well of a round bottom 96-well plate (Costar). Then, the cells were treated with 10 μL of Compound 229 diluted in RPMI medium at various concentrations, and incubated in a 5% CO2 incubator at 37° C. for 72 hours. In a vehicle control group, the cells were 10 μL of 0.2% DMSO-containing RPMI medium. The incubated cells were placed into 5-mL FACS tubes and washed with 1 mL of fluorescence activated cell sorting (FACS) buffer (1% FBS and 0.1% sodium azaide in PBS). The washed cells were re-suspended in 0.1 mL of FACS buffer, and then treated with 1 μg of mouse immunoglobulin G (IgG, e-Biosciences) in order to prevent the non-specific binding of antibody, followed by incubation at 4° C. for 15 minutes. Then, the cells were stained with 0.5 μg of phycoerythrin-conjugated anti-mouse H-2K^b mAb (e-Biosciences) and stained at 4° C. for 30 minutes. After the staining, the cells were washed twice with 1 mL of FACS buffer, re-suspended in 0.1 mL of FACS buffer, stained with 7-AAD at room temperature for 5 minutes. […]

For `Cc1cc(C)c(OCC(=O)N/N=C/c2ccc3cc[nH]c3c2)c(C2CCOC2)c1` (stereo not shown) [Compound 229, (E)-N′-((1H-indol-6-yl)methylene)-2-(2,4-dimethyl-6-(tetrahydrofuran-3-yl)phenoxy)acetohydrazide], the “severity index (EAE, 0 to 5 scale)” value ([1]; 25 mg/kg orally daily from 17 to 37 days, at 17 days (start of administration)) was 3±1, the “severity index (EAE, 0 to 5 scale)” value ([1]; 25 mg/kg orally daily from 17 to 37 days, at 39 days, vehicle 2.5±0.75) was 1.25±0.75 and the “severity index (EAE, 0 to 5 scale)” value ([1]; 25 mg/kg orally daily from 17 to 37 days, at 55 days) was 1.17±0.75. For the same compound, the “severity index (EAE, 0 to 5 scale)” value ([1]; 25 mg/kg orally daily from 17 to 37 days, at 101 days, vehicle 2.33±0.25) was 1.83±0.5, the “severity index (EAE, 0 to 5 scale)” value ([1]; 50 mg/kg orally daily from 17 to 37 days, at 17 days (start of administration)) was 3±0.75 and the “severity index (EAE, 0 to 5 scale)” value ([1]; 50 mg/kg orally daily from 17 to 37 days, at 39 days, vehicle 2.5±0.75) was 0.9±0.25. For the same compound, the “severity index (EAE, 0 to 5 scale)” value ([1]; 50 mg/kg orally daily from 17 to 37 days, at 101 days, vehicle 2.33±0.25) was 0.63±0.25, the “Apoptosis % (mean ± SD) Primary Response” value ([2]; 0.125 μM, 7-AAD) was 28.42 ± 5.31% and the “Apoptosis % (mean ± SD) Secondary Response” value ([2]; 0.125 μM, 7-AAD) was 41.40 ± 4.35%. The “increase of apoptosis compared to the vehicle control group, secondary response” value ([2]; 0.25 μM or higher, 7-AAD) was 21-42%, the “Apoptosis % (mean ± SD) Primary Response” value ([2]; 0.25 μM, 7-AAD) was 31.20 ± 4.26% and the “Apoptosis % (mean ± SD) Secondary Response” value ([2]; 0.25 μM, 7-AAD) was 60.27 ± 6.10 %. The “increase of apoptosis compared to the vehicle control group, primary response” value ([2]; 0.5 μM or higher, 7-AAD) was 14-19%, the “ratio of T cells (CFSE low) that proliferated in response to the alloantigen, of the total T cells” value ([2]; 0.5 μM or higher, vehicle control 50%) was at most 3% and the “Apoptosis % (mean ± SD) Primary Response” value ([2]; 0.5 μM, 7-AAD) was 45.01 ± 5.48 %. The “Apoptosis % (mean ± SD) Secondary Response” value ([2]; 0.5 μM, 7-AAD) was 81.70 ± 5.62 %, the “Apoptosis % (mean ± SD) Primary Response” value ([2]; 1 μM, 7-AAD) was 50.37 ± 6.19 % and the “Apoptosis % (mean ± SD) Secondary Response” value ([2]; 1 μM, 7-AAD) was 80.37 ± 7.16 %. For the same compound, the “proliferation of the alloantigen-specific T cells, secondary response” value ([2]; T cells activated primarily by the alloantigen in vivo, reacted with the same antigen in vitro) was “effectively inhibited”.
